Data taken from patent US12324927B2, “Methods and systems for photodynamic therapy calculations” (THE TRUSTEES OF THE UNIVERSITY OF PENNSYLVANIA, priority 2018, dated 2025).
Where “and” joins values, the source holds several entries; their conditions need not be identical. Equal values may be shown once.

Test system: radiation-induced fibrosarcoma (RIF) tumors
Experiment: Preclinical Photofrin-PDT of RIF tumors: [ROS]rx by ROSED from Oxylite-measured or DCS blood-flow-derived oxygen
Type: in vivo, mice
Details: per mouse; for Initial Photofrin concentration, [PS]: in tumor, 5 mg/kg i.v. 24 h before light, 5 mg/kg; for Calculated [ROS]rx, Measured [^3O2] / Calculated [ROS]rx, DCS blood flow: 75 mW/cm^2, 1800 or 3333 s; for Calculated [ROS]rx, Measured [^3O2]: Oxylite-measured oxygen; for Calculated [ROS]rx, DCS blood flow: blood-flow-derived oxygen
Description: Tumor model and PDT treatment conditions: A preclinical study was conducted using a murine model to investigate the relationship between the dynamics of tumor oxygen and blood flow during PDT. Female C3H mice (Charles River Laboratories, Kingston, NY) between 6 to 8 weeks of age were used in this study. Radiation-induced fibrosarcoma (RIF) tumors were propagated on the shoulders of mice by intradermal injection of 3×10^5 cells. The mice were fed with chlorophyll-free (alfalfa-free) rodent diet (Harlan Laboratories Inc., Indianapolis, Indiana, US) for two weeks prior to treatment to eliminate the fluorescence signal from chlorophyll-breakdown products, which overlap with the emission spectrum of Photofrin fluorescence. PDT was performed when tumors reached ˜4-5 mm in diameter. The treatment area was depilated with Nair (Church & Dwight Co., Inc., Ewing, New Jersey, US) and 5 mg/kg Photofrin was injected via tail vein 24 hours prior to measurements and light delivery. Tissue optical properties and Photofrin fluorescence spectra were obtained using a custom-made multi-fiber contact probe, as described elsewhere (18, 19), before and after PDT. Tissue oxygenation and blood flow changes were monitored continuously during the delivery of PDT using oximeter and DCS as described below. At a 24-h drug-light interval, superficial irradiation of the tumor was performed with a 630-nm laser (Biolitec AG., A-1030, Vienna). A microlens fiber was coupled to the laser to irradiate the tumor uniformly. Animals used in this study were under the care of the University of Pennsylvania Laboratory Animal Resources and the studies were approved by the University of Pennsylvania Institutional Animal Care and Use Committee.
Measurement of tumor tissue oxygenation during preclinical PDT: Tumor oxygen was monitored throughout the PDT treatment in mice using an optical oxygen partial pressure (pO2) monitor (OxyLite Pro, Oxford Optronix, Oxford, UK), with a bare-fiber-type probe (NX-BF/O/E, Oxford Optronix, Oxford, UK). The tip of the probe was inserted into the tumor at approximately 1-2 mm depth from the treatment surface to measure the changes in tissue oxygen partial pressure within the tumor mass during PDT. ^3O2 concentration was then approximated by multiplying the measured pO2 with ^3O2 solubility in tissue, which is 1.295 μM/mmHg (20, 21).
Measurement of blood flow during preclinical PDT: Tumor blood flow was measured using DCS, an optical technique that measures the rapid speckle intensity fluctuations induced by blood flow. DCS, within a noncontact probe setup, was used to monitor blood flow changes in mice during PDT. A detailed description of the DCS instrument can be found in (22, 23). Briefly, a continuous wave 785-nm laser with long coherence length (CrystaLaser Inc., Reno, NV) delivered light through a source fiber, and the diffuse reflected light was collected using two single mode fibers located 0.3 cm laterally from the source fiber. These fibers were mounted on the imaging plane of a camera with sensor removed. A camera lens was used to focus the laser and to collect diffuse reflected light from the tumor at a fixed distance of 15 cm from the camera lens. This setup permits noncontact blood flow measurements during PDT without obstructing the treatment light. Two single photon counting avalanche photodiodes were used to detect the diffuse light in parallel. Notch filters at 630 nm and a 785 nm bandpass filter were used to prevent the ambient room light and the strong 630-nm treatment laser from saturating the detectors. Tissue blood flow measurements started 5 minutes before the beginning of PDT treatment and lasted until completion of PDT.
Calculation of [ROS]rx using ROSED: The PDT process is described by a set of kinetic equations which can be simplified to compute the production of [ROS]rx (4, 8, 9, 13). […]

- Initial Photofrin concentration, [PS] (treatment time 1800 s): 6.9 µM and 6.8 µM and 5.2 µM and 5.7 µM
- Initial Photofrin concentration, [PS] (treatment time 3333 s): 6.5 µM and 4.2 µM and 4.5 µM
Substance: Photofrin
- Calculated [ROS]rx, Measured [^3O2] (treatment time 1800 s): 1.39 mM and 1.24 mM and 1.07 mM and 1.09 mM
- Calculated [ROS]rx, Measured [^3O2] (treatment time 3333 s): 2.33 mM and 1.73 mM and 1.89 mM
- Calculated [ROS]rx, DCS blood flow (treatment time 1800 s): 1.35 mM and 1.18 mM and 1.12 mM and 0.95 mM
- Calculated [ROS]rx, DCS blood flow (treatment time 3333 s): 2.21 mM and 1.92 mM and 1.81 mM
